Each block holds one compound with its values, some of them ahead of it.
Experiments:
Assay type in all cases: binding
[1] = target: T1, VIPR1 (Homo sapiens, UniProt P32241); assay: NanoBRET screen HiBiT-VIPR1 in HEK293
T1 construct: purchased Promega (in-house HiBiT-GPCR construct library, NanoBRET)
T1 sequence (P32241 31-457): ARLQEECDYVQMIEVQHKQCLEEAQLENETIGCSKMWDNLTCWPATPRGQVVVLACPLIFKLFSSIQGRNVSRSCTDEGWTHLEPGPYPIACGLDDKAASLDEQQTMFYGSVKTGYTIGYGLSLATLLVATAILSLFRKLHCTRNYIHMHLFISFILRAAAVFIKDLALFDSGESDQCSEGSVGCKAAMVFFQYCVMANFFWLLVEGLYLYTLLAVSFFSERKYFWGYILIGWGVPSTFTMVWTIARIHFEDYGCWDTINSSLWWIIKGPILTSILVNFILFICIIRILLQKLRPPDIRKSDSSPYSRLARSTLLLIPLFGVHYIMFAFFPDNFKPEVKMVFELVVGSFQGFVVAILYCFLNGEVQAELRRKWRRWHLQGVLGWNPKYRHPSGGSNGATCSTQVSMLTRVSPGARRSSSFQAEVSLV
Experimental: (§1) Each tracer candidate was screened across the entire library of HiBiT-GPCR constructs using NanoBRET as the detection modality. As depicted in Figure 4A, the specificity of interactions was evaluated through decrease in BRET due to competitive displacement of a bound tracer by excess parental compound. Each tracer was analyzed for binding to each HiBiT-GPCR fusion in the absence and in the presence of competing parental compound. Briefly, HEK293 cells were transfected with HiBiT-GPCR constructs diluted into promoterless DNA to reduce expression and maximize translocation to the cell surface. Each tracer candidate was then screened at concentrations of 1 μM and 0.1 μM across cells expressing these fusions. Cells were treated for 1.5 h with tracer either alone or in the presence of 20 μM competing parental compound (i.e., control). BRET was measured upon addition of purified LgBiT and subsequent complementation with HiBiT genetically fused to a GPCR. The specificity of interactions was assessed through a decrease in BRET signal due to competitive displacement of the bound tracer. To further gauge the robustness of these interactions, the fold response over the control (i.e., BRETtracer/BRETcontrol) was calculated. We chose a 1.5-fold response, which translates to ≥7-fold signal over noise as the minimal threshold required to score an interaction as positive. […]. Below we highlight the screening results obtained for our exemplary fluorescent tracers based on Clozapine, Amitriptyline and AZD1283.
(§2) HiBiT-GPCR DNA constructs were diluted in 10 mM Tris pH 8 to a final concentration of 0.01 μg/μL, arrayed in 96-well plates and stored at −20 °C. For transfection, HEK293 cells were suspended in Opti-MEM (without phenol red) supplemented with 2% fetal bovine serum (Seradigm) and 100 units/mL penicillin–streptomycin (Gibco) at a final concentration of 220,000 cells/mL and dispensed into white 96-well plates at 90 μL/well. Subsequent transfections and screens were carried using an Agilent Bravo Automated Liquid Handling Platform. First, the 96-well HiBiT DNA arrays were diluted 25-fold in Opti-MEM (without serum or phenol red) to a final concentration of 0.0004 μg/μL and 20 μL of the diluted DNAs were transferred into new 96-well plates. Next, promoterless carrier DNA (1 μg/μL) was diluted 25-fold (0.04 μg/μL) and then dispensed into the diluted arrays at 20 μL/well. Following brief mixing, Viafect transfection reagent (Promega) diluted 16-fold into Opti-MEM was dispensed into the plates at 40 μL/well. After mixing by pipetting, plates were incubated for 10 min on the pipetting station deck. The DNA-transfection reagent complexes were then added to plates containing cells. To facilitate the screen, 10 μL of DNA-transfection reagent complexes were added in duplicates to the top 4 and bottom 4 rows, resulting in two identical 48-well arrays per plate. Plates with transfected cells were incubated for 18–20 h at 37 °C/5% CO2. A screen of each tracer across the entire library using two different concentrations requires duplicate plates of transfected cells. Depending on the number of tracers being screened, transfections can be scaled up using the same ratios. The next day, for each tracer, four 20× screening solutions in tracer dilution buffer (Promega) were prepared: two duplicates at final concentration of 20 μM and two duplicates at a final concentration of 2 μM. A competing unmodified compound was added to one of each duplicate at a final concentration of 400 μM. The four resulting solutions were diluted 4-fold in Opti-MEM without serum or phenol red to generate 5× solutions (5 µM and 0.5 µM tracer +/− 100 μM competing compound). To screen the library, a BioTek MultiFlo FX liquid dispenser was used to dispense 22.5 µL of tracer solution to the top 4 rows and 22.5 µL tracer + competing compound solution to the 4 bottom rows. Plates were briefly mixed on an orbital shaker and incubated for 1.5 h at room temperature. […]

[2] = target: T2, NTSR1 (Homo sapiens, UniProt P30989); assay: NanoBRET screen HiBiT-NTSR1 in HEK293
T2 construct: purchased Promega (in-house HiBiT-GPCR construct library, NanoBRET)
T2 sequence (P30989 whole entry): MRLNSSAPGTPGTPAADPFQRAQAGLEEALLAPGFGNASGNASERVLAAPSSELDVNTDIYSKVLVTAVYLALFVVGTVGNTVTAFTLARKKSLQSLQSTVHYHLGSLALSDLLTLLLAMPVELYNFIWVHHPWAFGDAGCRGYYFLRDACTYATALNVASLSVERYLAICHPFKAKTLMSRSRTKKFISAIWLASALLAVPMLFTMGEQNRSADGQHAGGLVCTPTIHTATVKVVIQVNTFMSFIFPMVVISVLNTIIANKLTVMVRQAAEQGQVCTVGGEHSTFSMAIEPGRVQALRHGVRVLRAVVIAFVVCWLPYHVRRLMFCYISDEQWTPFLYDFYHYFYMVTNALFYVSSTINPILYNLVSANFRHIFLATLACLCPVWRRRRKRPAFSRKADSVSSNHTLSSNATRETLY
Experimental: as §1, §2

[3] = target: T3, F2RL3 (Homo sapiens, UniProt Q96RI0); assay: NanoBRET screen HiBiT-F2RL3 in HEK293
T3 construct: purchased Promega (in-house HiBiT-GPCR construct library, NanoBRET)
T3 sequence (Q96RI0 18-385): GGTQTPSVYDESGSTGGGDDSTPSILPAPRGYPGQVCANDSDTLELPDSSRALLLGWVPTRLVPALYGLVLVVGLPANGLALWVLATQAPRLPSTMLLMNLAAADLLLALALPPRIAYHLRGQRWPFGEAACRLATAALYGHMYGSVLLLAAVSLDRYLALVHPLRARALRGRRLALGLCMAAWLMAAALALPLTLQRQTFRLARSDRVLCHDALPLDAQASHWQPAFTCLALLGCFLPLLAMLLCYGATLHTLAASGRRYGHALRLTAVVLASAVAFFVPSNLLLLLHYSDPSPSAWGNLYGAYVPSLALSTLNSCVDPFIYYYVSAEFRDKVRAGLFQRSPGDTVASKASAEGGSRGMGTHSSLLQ
Experimental: as §1, §2

[4] = tracer at 0.1μM, listed as amitriptyline-b-2-NB590
[5] = tracer at 1μM, listed as amitriptyline-b-2-NB590

SMILES: CN(C)CCC=C1c2ccccc2CCc2ccc(C(=O)NCCNC(=O)CCOCCOCCOCCOCCNC(=O)CCc3ccc4n3[B-](F)(F)[N+]3=C(c5ccc[nH]5)C=CC3=C4)cc21 [Amitriptyline-a-2-NB590]
NanoBRET Fold Response ([1]; tracer at 0.1μM): 0.95
NanoBRET Fold Response ([1]; tracer at 1μM): 1.07
NanoBRET Fold Response ([2]; tracer at 0.1μM): 1.05
NanoBRET Fold Response ([2]; tracer at 1μM): 1.00
NanoBRET Fold Response ([3]; tracer at 0.1μM): 1.00
NanoBRET Fold Response ([3]; tracer at 1μM): 1.03

SMILES: CN(C)CCC=C1c2ccccc2CCc2ccc(C(=O)NCCNC(=O)CCOCCOCCOCCOCCNC(=O)CCc3ccc4n3[B-](F)(F)[N+]3=C(c5ccc[nH]5)C=CC3=C4)cc21 [Amitriptyline-b-2-NB590]
NanoBRET Fold Response [1, 4]: 0.98
NanoBRET Fold Response ([1]; tracer at 1μM): 0.96
NanoBRET Fold Response [2, 4]: 0.97
NanoBRET Fold Response [2, 5]: 1.02
NanoBRET Fold Response [3, 4]: 0.94
NanoBRET Fold Response [3, 5]: 1.04

SMILES: CN(CCC=C1c2ccccc2CCc2ccccc21)C(=O)CCOCCOCCOCCOCCNC(=O)CCc1ccc2n1[B-](F)(F)[N+]1=C(c3ccc[nH]3)C=CC1=C2 [Amitriptyline-e-2-NB590]
NanoBRET Fold Response ([1]; tracer at 1μM): 1.06

SMILES: COc1ccc2c(n1)c(CCNC(C)=O)cn2CCNC(=O)CCc1ccc2n1[B-](F)(F)[N+]1=C(c3ccc[nH]3)C=CC1=C2 [Azamelatonin-1-NB590]
NanoBRET Fold Response ([1]; 0.1μM tracer): 0.99
NanoBRET Fold Response ([1]; 1μM tracer): 1.21
NanoBRET Fold Response ([2]; 0.1μM tracer): 1.05
NanoBRET Fold Response ([2]; 1μM tracer): 0.99
NanoBRET Fold Response ([3]; 0.1μM tracer): 0.98
NanoBRET Fold Response ([3]; 1μM tracer): 0.86

Next, values leading:

NanoBRET Fold Response ([1]; VIPR1, 0.1μM): 0.99
NanoBRET Fold Response ([1]; VIPR1, 1μM): 1.02
NanoBRET Fold Response ([2]; NTSR1, 0.1μM): 1.04
NanoBRET Fold Response ([2]; NTSR1, 1μM): 1.07
NanoBRET Fold Response ([3]; F2RL3, 0.1μM): 1.04
NanoBRET Fold Response ([3]; F2RL3, 1μM): 1.09
SMILES: CCOC(=O)c1cc(C#N)c(N2CCC(C(=O)NS(=O)(=O)Cc3ccccc3/C=C/C(=O)NCCNC(=O)CCc3ccc4n3[B-](F)(F)[N+]3=C(c5ccc[nH]5)C=CC3=C4)CC2)nc1C [AZD1283-1-NB590]

NanoBRET Fold Response ([1]; VIPR1, tracer 0.1μM): 1.02
NanoBRET Fold Response ([1]; VIPR1, tracer 1μM): 1.00
NanoBRET Fold Response ([2]; NTSR1, tracer 0.1μM): 1.02
NanoBRET Fold Response ([2]; NTSR1, tracer 1μM): 1.03
NanoBRET Fold Response ([3]; F2RL3, tracer 0.1μM): 0.99
NanoBRET Fold Response ([3]; F2RL3, tracer 1μM): 1.06
SMILES: N#CN=C(NCCCOc1cccc(CN2CCCCC2)c1)NCCNC(=O)CCOCCOCCOCCOCCNC(=O)CCc1ccc2n1[B-](F)(F)[N+]1=C(c3ccc[nH]3)C=CC1=C2 [Aminopotentidine-2-NB590]

NanoBRET Fold Response ([1]; 0.1μM tracer): 0.89
NanoBRET Fold Response ([1]; 1μM tracer): 0.81
NanoBRET Fold Response ([2]; 0.1μM tracer): 0.90
NanoBRET Fold Response ([2]; 1μM tracer): 0.78
NanoBRET Fold Response ([3]; 0.1μM tracer): 1.05
NanoBRET Fold Response ([3]; 1μM tracer): 1.04
SMILES: COc1ccc2[nH]c(-c3ccc(CNC(=O)CCOCCOCCOCCOCCNC(=O)CCc4ccc5n4[B-](F)(F)[N+]4=C(c6ccc[nH]6)C=CC4=C5)cc3)c(CCNC(C)=O)c2n1 [AzomelatoninICO9-2-NB590]
